From PMC4188605, “Biochemical and Pharmacological Characterization of the Human Lymphocyte Antigen B-Associated Transcript 5 (BAT5/ABHD16A)” (PLoS ONE, 2014) come the findings set out here.

Assay [1] has as its target T1, hBAT5 (Homo sapiens, UniProt O95870).
T1 sequence (O95870 1-558): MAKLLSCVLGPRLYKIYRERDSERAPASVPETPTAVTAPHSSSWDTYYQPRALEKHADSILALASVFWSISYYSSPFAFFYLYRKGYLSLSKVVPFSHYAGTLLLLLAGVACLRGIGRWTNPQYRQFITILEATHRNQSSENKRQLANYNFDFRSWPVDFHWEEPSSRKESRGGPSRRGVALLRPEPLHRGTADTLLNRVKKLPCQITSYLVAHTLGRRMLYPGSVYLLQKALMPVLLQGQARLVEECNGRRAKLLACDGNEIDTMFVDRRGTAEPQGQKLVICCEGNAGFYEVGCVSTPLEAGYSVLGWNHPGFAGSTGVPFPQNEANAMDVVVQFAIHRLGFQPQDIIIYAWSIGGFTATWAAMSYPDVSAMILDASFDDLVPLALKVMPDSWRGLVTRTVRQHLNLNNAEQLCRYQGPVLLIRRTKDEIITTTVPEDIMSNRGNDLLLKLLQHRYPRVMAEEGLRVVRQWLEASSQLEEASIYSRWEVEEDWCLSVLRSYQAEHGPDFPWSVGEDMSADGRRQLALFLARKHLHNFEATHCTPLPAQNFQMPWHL
Kind of assay: hBAT5 substrate hydrolysis and Michaelis-Menten kinetics (glycerol assay, hBAT5-HEK293 lysates). To be noted: 25 µM substrate.
Procedure: HEK293 cells were transiently transfected with the cDNA encoding hBAT5, as detailed in the Methods section. After 48 h, cells were harvested and lysates prepared for hydrolase activity measurements using a sensitive fluorescent glycerol assay. […] Glycerol production was determined at time-point 60 min.
After 48 h, cells were harvested and lysates prepared for hydrolase activity measurements. Cellular lysates (0.3 µg/well) were incubated together with the indicated concentrations of 1-LG in assay mixes containing (+ BSA) or not (– BSA) 0.5% (w/v) BSA (A) or with 15d-PGJ2-G in assay mix containing BSA (B). […] As crude cellular lysates were used, total protein concentration was used instead of true enzyme concentration. […] Values are mean ± SEM from three independent experiments.
Glycerol liberated from the hydrolysis of glycerolipid substrates was determined kinetically using a fluorometric assay, essentially as previously described [10]. Briefly, glycerol production was coupled via a three-step enzymatic cascade to hydrogen peroxide (H2O2) dependent generation of resorufin whose fluorescence (λex 530; λem 590 nm) was kinetically monitored using a Tecan Infinite M200 plate reader (Tecan Group Ltd., Männedorf, Switzerland). The assays routinely contained 0.5% (w/v) BSA (essentially fatty acid free) as a carrier for lipophilic compounds. […] The twelve MAG substrates were tested also in assays without BSA. In addition, four commercially available PG-Gs were included. To monitor assay performance, assay blanks without enzyme, cellular background (HEK293/Mock cell lysates) as well as a glycerol standard were included for each tested substrate. Fluorescence of the assay blank was subtracted before calculation of the final results.

For assay [2], the target named is T1, hBAT5. As to the kind of experiment: Inhibition of 1-LG hydrolysis in hBAT5-HEK293 lysates (fluorescent glycerol assay). It counts as biochemical. More on the design: host or cells: HEK293. To be noted: for hBAT5 inhibitory activity (in words): 1-LG hydrolysis; for remaining activity at 10 µM: at 10^-5 M; for fold decrease in activity when methyl (40) is replaced: 5-position substituent, relative to 40.

The mark [3] stands for this setting: 1-LG 25 µM, 30 min inhibitor pretreatment, monitored 90 min, mean, n=3, read-out: IC50.
Where [4] appears, read: printed as LogIC50 with negative sign, 1-LG 25 µM, 30 min pretreatment, Figures 9 and 10, read-out: LogIC50 Mean ± SEM, n=3 (converted).

Where two headings read alike, the source gives them in different places.

Take `CCCCCCCCCCCCCCCCCC(=O)OC[C@@H](O)CO` [1-SG]: on hBAT5 [1] (with 0.5% BSA, 60 min), the “hydrolysis by hBAT5 (substrate utilization, in words)” value (from here on “hydrolysis by hBAT5”) is recorded as “not utilized”.
Consider `CCCCCCCCCCCCCCCC(=O)OC(CO)CO` [MAGs C16∶0, 2-palmitoyl-rac–glycerol], for which the “hydrolysis by hBAT5” value at hBAT5 [1] (without BSA) is “barely detectable hydrolysis”.
As for `CCCCC[C@H](O)/C=C/[C@@H]1[C@@H](C/C=C\CCCC(=O)OCC(O)CO)[C@@H](O)C[C@H]1O` (stereo partly drawn) [PG-F2α-G, prostaglandin F2α-1-glycerol ester], the “hydrolysis by hBAT5” value at hBAT5 [1] (with 0.5% BSA, 60 min) is given as “low”.
Regarding `CCCCC[C@H](O)/C=C/[C@H]1C(=O)C[C@H](O)[C@@H]1C/C=C\CCCC(=O)OCC(O)CO` (stereo partly drawn) [PGD2-G, prostaglandin D2-1-glycerol ester], the “hydrolysis by hBAT5” value at hBAT5 [1] (with 0.5% BSA, 60 min) is “to lesser extend”.
In the case of `CCCCC[C@H](O)/C=C/[C@H]1[C@H](O)CC(=O)[C@@H]1C/C=C\CCCC(=O)OCC(O)CO` (stereo partly drawn) [PGE2-G, prostaglandin E2-1-glycerol ester], the “hydrolysis by hBAT5” value at hBAT5 [1] (with 0.5% BSA, 60 min) is listed as “low”.
In the case of `COc1nn(-c2ccc([N+](=O)[O-])cc2)c(=O)o1` [compound 41, 5-Methoxy-3-(4-nitrophenyl)-1,3,4-oxadiazol-2(3H)-one], the IC50 at hBAT5 [2] (setting [3]) stood at 339 nM.
Take `COc1nn(-c2ccccc2F)c(=O)o1` [compound 42]: at hBAT5 [2] (setting [3]), the IC50 is 50 nM.
As for `COc1nn(-c2cccc(F)c2)c(=O)o1` [compound 43], on hBAT5 [2] (setting [4]), the IC50 is 41.7 nM.
For `COc1nn(-c2ccc(Br)cc2)c(=O)o1` [compound 45], the IC50 on hBAT5 [2] (setting [3]) worked out at 110 nM.
As to `COc1nn(-c2ccc(I)cc2)c(=O)o1` [compound 46], on hBAT5 [2] (setting [3]), the IC50 was determined as 355 nM.
The same measure, in the same setting: the value for `COc1nn(-c2cccc(C#N)c2)c(=O)o1` [compound 47] was 78 nM.
As for `COc1nn(-c2ccccc2C)c(=O)o1` [compound 48], the “hBAT5 inhibitory activity (in words)” value on hBAT5 [2] is “inactive”. On hBAT5 [2] (at 10^-6 M, 1-LG 25 µM), the remaining activity at 1 µM worked out at 93.4 ± 1.9%.
For the compound `COc1nn(Cc2cccc(Oc3ccccc3)c2)c(=O)o1` [compound 49], the “hBAT5 inhibitory activity (in words)” value at hBAT5 [2] is on record as “loss of hBAT5 inhibitory activity”. Moreover, the remaining activity at 10 µM on hBAT5 [2] (1-LG 25 µM) was 102 ± 8.2%.
For `COc1nn(Cc2cccc([N+](=O)[O-])c2)c(=O)o1` [compound 50, 5-Methoxy-3-(3-nitrobenzyl)-1,3,4-oxadiazol-2(3H)-one] the same measures were “loss of hBAT5 inhibitory activity” and 99.3 ± 4.7%.
Regarding `CCOc1nn(-c2cccc([N+](=O)[O-])c2)c(=O)o1` [compound 51, 5-Ethoxy-3-(3-nitrophenyl)-1,3,4-oxadiazol-2(3H)-one], at hBAT5 [2] (setting [3]), the IC50 was 126 nM. Besides, the “fold decrease in activity when methyl (40) is replaced” value (from here on “fold decrease in activity when methyl”) on hBAT5 [2] was “about twofold”.
`O=c1oc(Oc2ccccc2)nn1-c1cccc([N+](=O)[O-])c1` [compound 52, 3-(3-Nitrophenyl)-5-phenoxy-1,3,4-oxadiazol-2(3H)-one]: the IC50 at hBAT5 [2] (setting [3]) amounted to 138 nM. For the same compound, the “fold decrease in activity when methyl” value at hBAT5 [2] is reported as “about twofold”.
As to `O=c1oc(OCc2ccccc2)nn1-c1cccc([N+](=O)[O-])c1` [compound 53, 5-(Benzyloxy)-3-(3-nitrophenyl)-1,3,4-oxadiazol-2(3H)-one], the “fold decrease in activity when methyl” value at hBAT5 [2] turned out to be 24 fold. Also, the IC50 on hBAT5 [2] (setting [4]) is 1480 nM.
For `COc1ccc(Oc2nn(-c3cccc([N+](=O)[O-])c3)c(=O)o2)cc1` [compound 54, 5-(4-Methoxyphenoxy)-3-(3-nitrophenyl)-1,3,4-oxadiazol-2(3H)-one], the IC50 at hBAT5 [2] (setting [3]) came out at 631 nM. Further, the “fold decrease in activity when methyl” value at hBAT5 [2] amounted to 10 fold.
Consider `O=c1oc(Oc2ccc([N+](=O)[O-])cc2)nn1-c1cccc([N+](=O)[O-])c1` [compound 55, 5-(4-Nitrophenoxy)-3-(3-nitrophenyl)-1,3,4-oxadiazol-2(3H)-one], for which, on hBAT5 [2], the “hBAT5 inhibitory activity (in words)” value is given as “weakest inhibitor of this series”. Moreover, the remaining activity at 10 µM at hBAT5 [2] (1-LG 25 µM) is 50.5 ± 3.7%.
